Paper PMC10907374, “G2019S selective LRRK2 kinase inhibitor abrogates mitochondrial DNA damage” (NPJ Parkinson's Disease, 2024)

Tests used:
LRRK2 kinase = conditions: humans ref 15; cited from earlier work
wild-type HEK293 cells = assay: Mitophagy (Mtphagy dye / Lyso dye live cell imaging) in wild-type HEK293 cells; format: cell-based, human; conditions: 20 μM FCCP, 3 h
Procedure: (§1) Thirty-five mm cell culture dishes (Cellvis, D35-20-1.5-N) were coated with poly-D-lysine (Sigma-Aldrich, P7280-5MG) for 5 min, washed with cell culture grade water (Sigma-Aldrich, W3500), and allowed to dry for at least 1 h before plating. LRRK2^G2019S/G2019S KI HEK293 and wild-type cells were passaged as described above and plated at 300,000 cells per well on poly-D-lysine-coated dishes. […] Following this, cells were washed three times with serum-free medium, and a working solution of Mtphagy dye (Dojindo, MD-01) was prepared in serum-free medium according to manufacturer protocols. Cultures were incubated with Mtphagy dye for 30 min, followed by three washes with serum-free medium. Complete medium was used to prepare a 20 µM FCCP (Abcam, ab120081) or DMSO control treatment solution, which was used to treat cells for 3 h. Following treatment, cells were then washed 3 times with serum-free medium, and a working solution of Lyso dye (Dojindo, MD-01) was prepared in serum-free medium and used to treat cells for 30 min. Complete medium lacking phenol red was prepared for use in confocal live cell imaging by combining phenol red-free DMEM/F-12 (Fisher Scientific, 21-041-025), FBS (VWR, 97068-085), and penicillin-streptomycin (VWR, 45000-652). Following Lyso dye treatment, cultures were washed three times with phenol red-free medium, followed by adding fresh phenol red-free medium to cell culture dishes. MitoBright LT Deep Red (Dojindo, MT12-12) was diluted in growth medium to prepare a 0.1 μmol/l solution and was used to treat cells for 15 min for total mitochondrial staining. Live cell imaging (5% CO2, 37 °C) was performed using a Zeiss LSM 880 Confocal Laser Scanning Microscope with Zen Black software. On average, ~70 cells were analyzed for each condition per each experimental replicate.
(§2) Following imaging, files were processed using Zen Blue software, and TIFF files of each channel were obtained for analysis. ImageJ was used to obtain readouts for image analysis. All images were converted to 8-bit format. For each respective image, the Lyso dye channel was used to create a mask delineating each lysosomal focus as a region of interest (ROI). Thresholding parameters were adjusted between biological replicates as required to ensure that the Lyso dye ROI encompassed all lysosome foci appropriately, and this was used to create a mask. This was then applied to the corresponding Mtphagy dye channel image, allowing collection of Mtphgy fluorescence intensity readouts for each lysosomal focus. Outliers were removed using Prism software (GraphPad) with the coefficient of removal set to 0.2%. Data was thresholded to exclude lysosomes not containing mitochondria by excluding fluorescence values with intensities equal to or below background levels. The number of ROIs remaining after thresholding was used to quantify lysosomes containing fluorescing mitochondria (mitolysosomes). Fluorescence intensity values for all mitolysosomes per condition per biological replicate were averaged to obtain a value of mitophagy fluorescence intensity per mitolysosome. For each replicate, all values of average mitolysosome fluorescence intensity were normalized to wild-type (vehicle treated) levels for the given replicate.

[1] = tested on: LRRK2^G2019S/G2019S KI HEK293 cells; assay: Mitophagy (Mtphagy dye / Lyso dye live cell imaging) in LRRK2 G2019S/G2019S KI HEK293 cells; format: cell-based, human; conditions: 20 μM FCCP, 3 h
Procedure: as §1, §2

| Structure (SMILES) | inhibition of LRRK2 kinase by blood-based markers (LRRK2 kinase) | mitophagy following FCCP treatment (wild-type HEK293 cells) | mitophagy following FCCP treatment [1] |
| --- | --- | --- | --- |
| CNc1nc(Nc2cn(C(C)(C)C#N)nc2C)ncc1C(F)(F)F [DNL201] | dose-dependent inhibition |  |  |
| N#CC(C#N)=NNc1ccc(OC(F)(F)F)cc1 [FCCP] |  | increased | defect |
